In article PMC9551036, “A selective and orally bioavailable VHL-recruiting PROTAC achieves SMARCA2 degradation in vivo” (Nature Communications, 2022):
Values joined by “and” are separate entries in the source; they are usually repeats but may differ in a detail not shown here. Identical values can stand only once.

Legend:
SMARCA2/4 [1] = biological target: T1, SMARCA2/4 (Homo sapiens, UniProt P51531); assay: SMARCA2/4 half-life (cycloheximide) and re-synthesis after compound 6 and VHL binder in HCT116 and RKO; assay type: cell-based; conditions: for K (one phase exponential decay) / Tau (one phase exponential decay): CHX
T1 construct: endogenous in cells; host or cells: HCT116, RKO
Protocol: (§1) 130,000–200,000 cells were seeded in 24-well plates and incubated until settled down or overnight. Compounds were dissolved in DMSO and added to cells in indicated concentrations using a digital dispenser following an optional media change. […] For SMARCA2/4 half-life determination, 150,000 or 200,000 cells were seeded in 24-well plates. […] For SMARCA2/4 re-synthesis measurements, 200,000 cells were seeded in 24-well plates. The next day, 100 nM compound 6 was added for 4 h to degrade SMARCA2/4, and a sample was taken as baseline for normalisation. […] Medium was removed, cells were washed with PBS and lysed with 80 µl Lysis Buffer (MSD Tris Lysis Buffer (#R60TX-2) + Halt Inhibitor Cocktail (100x) + Benzonase 0.5 µL/ml). Samples were frozen at −80 °C and thawed at room temperature before use. Samples were transferred to a V-bottom plate and insoluble debris was pelleted by centrifugation for 5 min at maximum speed. The supernatant was transferred to a fresh plate. Master Mix and Ladder were prepared according to manufacturer’s instructions for 12–230 kDa Wes Separation Module, 8 × 25 capillary cartridges, Protein Simple #SM-W004 with Anti-Rabbit Detection Module for Wes, Peggy Sue or Sally Sue, Protein Simple #DM-001. 4.8 µl lysate were mixed with 1.2 µl Master Mix to achieve a protein concentration of ~0.5 µg/µl. Antibodies were diluted in Antibody Diluent II (SMARCA2 Sigma #HPA029981 RRID:AB_10602406 1:25–100, SMARCA4 Cell Signalling #49360 clone D1Q7F RRID:AB_2728743 1:15–120 or Abcam #ab110641 clone EPNCIR111A RRID:AB_10861578 1:60, GAPDH Abcam #ab9485 RRID:AB_307275 1:250). Wes plates were prepared and run according to manufacturer’s instructions. Proteins were quantified with accompanying Compass Software. SMARCA2/4 protein levels were normalised to GAPDH. […] Where applicable, curves were fitted using a 4-parametric logistic model.

SMARCA2/4 [2] = biological target: T2, SMARCA2/4 (Homo sapiens, UniProt P51532); assay: as above; assay type: cell-based; conditions: for K (one phase exponential decay) / Tau (one phase exponential decay): CHX
T2 construct: endogenous in cells; host or cells: HCT116, RKO
Protocol: as §1

T1 sequence (P51531 whole entry): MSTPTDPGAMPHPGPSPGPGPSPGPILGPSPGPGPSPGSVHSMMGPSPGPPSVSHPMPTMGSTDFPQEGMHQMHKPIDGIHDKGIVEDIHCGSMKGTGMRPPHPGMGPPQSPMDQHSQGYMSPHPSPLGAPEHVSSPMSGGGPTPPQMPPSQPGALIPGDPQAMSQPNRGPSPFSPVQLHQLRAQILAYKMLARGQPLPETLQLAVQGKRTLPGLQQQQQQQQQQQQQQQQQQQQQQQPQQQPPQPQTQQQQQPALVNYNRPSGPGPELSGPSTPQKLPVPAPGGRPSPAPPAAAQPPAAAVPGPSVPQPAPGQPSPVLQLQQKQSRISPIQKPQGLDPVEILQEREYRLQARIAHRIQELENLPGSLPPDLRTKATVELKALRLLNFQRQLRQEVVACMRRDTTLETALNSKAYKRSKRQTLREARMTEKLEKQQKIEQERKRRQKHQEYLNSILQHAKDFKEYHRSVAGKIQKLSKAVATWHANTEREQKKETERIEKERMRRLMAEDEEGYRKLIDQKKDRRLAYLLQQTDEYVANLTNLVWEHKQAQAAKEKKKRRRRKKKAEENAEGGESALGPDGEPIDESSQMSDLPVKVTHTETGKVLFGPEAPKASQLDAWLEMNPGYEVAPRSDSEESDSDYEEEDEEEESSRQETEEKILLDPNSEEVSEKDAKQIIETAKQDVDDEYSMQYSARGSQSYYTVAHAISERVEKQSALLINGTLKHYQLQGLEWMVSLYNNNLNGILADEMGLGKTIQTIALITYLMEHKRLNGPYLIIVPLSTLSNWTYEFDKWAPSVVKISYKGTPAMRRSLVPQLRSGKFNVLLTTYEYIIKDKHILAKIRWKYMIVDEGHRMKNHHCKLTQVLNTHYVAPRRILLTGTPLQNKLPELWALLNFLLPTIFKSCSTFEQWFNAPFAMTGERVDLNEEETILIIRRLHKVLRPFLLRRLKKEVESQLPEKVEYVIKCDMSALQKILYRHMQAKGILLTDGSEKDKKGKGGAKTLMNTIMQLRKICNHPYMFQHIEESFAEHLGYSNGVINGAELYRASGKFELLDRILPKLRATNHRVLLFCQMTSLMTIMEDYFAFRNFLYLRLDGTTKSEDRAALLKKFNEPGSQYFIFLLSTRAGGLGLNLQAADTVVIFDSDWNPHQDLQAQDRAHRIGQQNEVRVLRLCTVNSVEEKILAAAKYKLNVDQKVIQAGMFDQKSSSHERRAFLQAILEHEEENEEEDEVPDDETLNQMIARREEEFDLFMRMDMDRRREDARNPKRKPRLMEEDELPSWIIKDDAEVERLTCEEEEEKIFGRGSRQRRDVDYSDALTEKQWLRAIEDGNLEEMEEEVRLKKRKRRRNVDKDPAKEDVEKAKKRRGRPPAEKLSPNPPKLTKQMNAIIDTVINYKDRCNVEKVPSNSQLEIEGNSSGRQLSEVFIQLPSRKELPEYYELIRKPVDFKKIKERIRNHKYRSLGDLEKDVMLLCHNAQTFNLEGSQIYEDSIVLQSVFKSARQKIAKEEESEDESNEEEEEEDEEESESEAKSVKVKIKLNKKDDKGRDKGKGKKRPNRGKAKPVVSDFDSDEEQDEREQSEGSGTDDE
T2 sequence (P51532 whole entry): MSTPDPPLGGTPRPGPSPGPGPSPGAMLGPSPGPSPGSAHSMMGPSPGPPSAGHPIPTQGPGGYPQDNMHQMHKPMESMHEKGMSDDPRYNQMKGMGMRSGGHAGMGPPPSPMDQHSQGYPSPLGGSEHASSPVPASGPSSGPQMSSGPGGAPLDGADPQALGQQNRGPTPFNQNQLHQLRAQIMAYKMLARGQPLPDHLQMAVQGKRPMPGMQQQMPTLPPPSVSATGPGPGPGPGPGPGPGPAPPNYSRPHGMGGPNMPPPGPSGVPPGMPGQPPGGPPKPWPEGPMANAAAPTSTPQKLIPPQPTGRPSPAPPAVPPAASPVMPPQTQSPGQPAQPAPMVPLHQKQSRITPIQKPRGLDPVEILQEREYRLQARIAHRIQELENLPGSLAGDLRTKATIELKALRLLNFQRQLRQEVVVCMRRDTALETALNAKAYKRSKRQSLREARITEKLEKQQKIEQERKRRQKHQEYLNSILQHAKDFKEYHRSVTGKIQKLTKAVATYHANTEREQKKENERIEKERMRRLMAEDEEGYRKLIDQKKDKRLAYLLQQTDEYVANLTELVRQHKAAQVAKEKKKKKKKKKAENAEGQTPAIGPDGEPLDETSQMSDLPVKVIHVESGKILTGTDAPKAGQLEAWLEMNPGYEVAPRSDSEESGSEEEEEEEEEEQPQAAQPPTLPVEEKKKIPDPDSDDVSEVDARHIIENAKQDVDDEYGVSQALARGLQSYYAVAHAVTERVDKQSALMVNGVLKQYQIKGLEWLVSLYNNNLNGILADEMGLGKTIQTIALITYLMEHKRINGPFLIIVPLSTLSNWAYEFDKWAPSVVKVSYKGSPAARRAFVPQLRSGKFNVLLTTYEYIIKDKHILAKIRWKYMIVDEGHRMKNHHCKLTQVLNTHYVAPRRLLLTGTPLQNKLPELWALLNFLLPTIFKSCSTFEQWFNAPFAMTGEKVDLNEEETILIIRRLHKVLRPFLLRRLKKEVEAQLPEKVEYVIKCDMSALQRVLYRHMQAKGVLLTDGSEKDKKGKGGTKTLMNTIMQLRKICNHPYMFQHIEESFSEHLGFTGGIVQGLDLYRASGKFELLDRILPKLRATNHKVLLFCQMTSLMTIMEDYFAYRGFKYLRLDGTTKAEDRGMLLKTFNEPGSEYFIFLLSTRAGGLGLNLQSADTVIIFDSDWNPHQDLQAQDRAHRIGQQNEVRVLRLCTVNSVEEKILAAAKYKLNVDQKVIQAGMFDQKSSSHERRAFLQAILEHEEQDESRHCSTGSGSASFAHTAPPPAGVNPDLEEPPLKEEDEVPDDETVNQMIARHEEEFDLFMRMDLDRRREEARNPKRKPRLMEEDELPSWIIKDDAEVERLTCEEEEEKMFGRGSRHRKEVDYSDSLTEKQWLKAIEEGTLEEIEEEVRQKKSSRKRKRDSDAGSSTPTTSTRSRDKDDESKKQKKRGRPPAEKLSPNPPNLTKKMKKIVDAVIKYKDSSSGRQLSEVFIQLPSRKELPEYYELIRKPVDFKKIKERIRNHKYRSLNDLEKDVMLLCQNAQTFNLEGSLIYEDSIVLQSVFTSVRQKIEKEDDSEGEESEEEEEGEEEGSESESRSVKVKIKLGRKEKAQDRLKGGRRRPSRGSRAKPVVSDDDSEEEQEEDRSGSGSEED

**Q.** `C[C@@H]1C[C@@H]([C@H](O)CC2CC(=O)NC(=O)C2)C(=O)[C@@H](C)C1` [CHX] was tested. Which “K (one phase exponential decay)” value (SMARCA2/4 [1]; HCT116, SM2) did it give?
**A.** 0.01756

**Q.** What about the “Tau (one phase exponential decay)” value (SMARCA2/4 [1]; HCT116, SM2) of the same compound?
**A.** 56.94 h

**Q.** What about the fraction protein remaining (SMARCA2/4 [1]; HCT116, SM2, Time CHX 1 h) of the same compound?
**A.** 0.9134 and 0.9119 and 0.8363

**Q.** And the fraction protein remaining (SMARCA2/4 [1]; HCT116, SM2, Time CHX 2 h)?
**A.** 1.19 and 0.984 and 1.003

**Q.** What about the fraction protein remaining (SMARCA2/4 [1]; HCT116, SM2, Time CHX 6 h) of the same compound?
**A.** 1.2436 and 0.9973 and 0.8745

**Q.** And the fraction protein remaining (SMARCA2/4 [1]; HCT116, SM2, Time CHX 18 h)?
**A.** 0.8497 and 0.6816 and 0.6174

**Q.** And the fraction protein remaining (SMARCA2/4 [1]; HCT116, SM2, Time CHX 20 h)?
**A.** 0.8836 and 0.7383 and 0.515

**Q.** What about the “K (one phase exponential decay)” value (SMARCA2/4 [1]; RKO, SM2) of the same compound?
**A.** 0.03021

**Q.** What about the “Tau (one phase exponential decay)” value (SMARCA2/4 [1]; RKO, SM2) of the same compound?
**A.** 33.1 h

**Q.** And the fraction protein remaining (SMARCA2/4 [1]; RKO, SM2, Time CHX 1 h)?
**A.** 0.6694 and 0.8157 and 0.6659

**Q.** And the fraction protein remaining (SMARCA2/4 [1]; RKO, SM2, Time CHX 2 h)?
**A.** 0.8737 and 0.9723 and 0.8342

**Q.** And the fraction protein remaining (SMARCA2/4 [1]; RKO, SM2, Time CHX 6 h)?
**A.** 0.9472 and 0.9944 and 0.8492

**Q.** And the fraction protein remaining (SMARCA2/4 [1]; RKO, SM2, Time CHX 18 h)?
**A.** 0.7207 and 0.4914 and 0.6074

**Q.** And the fraction protein remaining (SMARCA2/4 [1]; RKO, SM2, Time CHX 20 h)?
**A.** 0.6704 and 0.4369 and 0.5438

**Q.** What about the “K (one phase exponential decay)” value (SMARCA2/4 [2]; HCT116, SM4) of the same compound?
**A.** 0.01934

**Q.** What about the “Tau (one phase exponential decay)” value (SMARCA2/4 [2]; HCT116, SM4) of the same compound?
**A.** 51.7 h

**Q.** What about the fraction protein remaining (SMARCA2/4 [2]; HCT116, SM4, Time CHX 1 h) of the same compound?
**A.** 0.9048 and 0.6354 and 0.681

**Q.** What about the fraction protein remaining (SMARCA2/4 [2]; HCT116, SM4, Time CHX 2 h) of the same compound?
**A.** 1.063 and 0.7806 and 0.7981

**Q.** And the fraction protein remaining (SMARCA2/4 [2]; HCT116, SM4, Time CHX 6 h)?
**A.** 0.982 and 0.7891 and 0.769

**Q.** And the fraction protein remaining (SMARCA2/4 [2]; HCT116, SM4, Time CHX 18 h)?
**A.** 0.6017 and 0.6088 and 0.5084

**Q.** What about the fraction protein remaining (SMARCA2/4 [2]; HCT116, SM4, Time CHX 20 h) of the same compound?
**A.** 0.6375 and 0.6135 and 0.453

**Q.** What about the fraction protein remaining (SMARCA2/4 [2]; HCT116, SM4, Time CHX 24 h) of the same compound?
**A.** 0.6439 and 0.582 and 0.7075

**Q.** And the “K (one phase exponential decay)” value (SMARCA2/4 [2]; RKO, SM4)?
**A.** 0.05848

**Q.** What about the “Tau (one phase exponential decay)” value (SMARCA2/4 [2]; RKO, SM4) of the same compound?
**A.** 17.1 h

**Q.** What about the fraction protein remaining (SMARCA2/4 [2]; RKO, SM4, Time CHX 1 h) of the same compound?
**A.** 0.6419 and 0.7642 and 0.7888

**Q.** What about the fraction protein remaining (SMARCA2/4 [2]; RKO, SM4, Time CHX 2 h) of the same compound?
**A.** 0.6538 and 0.6196 and 0.6177

**Q.** And the fraction protein remaining (SMARCA2/4 [2]; RKO, SM4, Time CHX 6 h)?
**A.** 0.4106 and 0.4086 and 0.4599

**Q.** And the fraction protein remaining (SMARCA2/4 [2]; RKO, SM4, Time CHX 18 h)?
**A.** 0.3137 and 0.4693 and 0.3349

**Q.** What about the fraction protein remaining (SMARCA2/4 [2]; RKO, SM4, Time CHX 20 h) of the same compound?
**A.** 0.3111 and 0.4007 and 0.3018

**Q.** And the fraction protein remaining (SMARCA2/4 [2]; RKO, SM4, Time CHX 24 h)?
**A.** 0.1564 and 0.2093 and 0.1216
